Experimental data reported in patent publication US20050176822A1, “Phenylacetonitrile derivatives and hair tonics and external preparations for skin containing the derivatives” (priority 2002, published 2005).

Assays:
[1] = tested on: artificial bulbus pili site (human dermal papilla cells + outer root sheath cells); assay: Growth-stimulative activity test on artificial human bulbus pili cell (Alamar Blue relative respiration level); type: cell-based; details: for Judgment (cell growth-stimulative effect by relative respiration level): final concentration 10^−12 M or 10^−14 M (not said which), 2 days incubation, negative control 0.1% ethanol = 100%; for cell growth-stimulative effect on artificial bulbus pili site, in words: final concentration 10^−12 M or 10^−14 M, summary of Table 2
Procedure: Growth-Stimulative Activity Test on Artificial Human Bulbus Pili Cell
(1) Preparation of First Stage Incubated Outer Root Sheath Cell
A bulbus pili site of a hair follicle isolated from a human scalp obtained by a plastic surgery was excised and then enzymatically treated in Keratinocyte-SFM medium (GibcoBRL:11965-011) supplemented with 1000 unit/ml dispase+0.2% collagenase at 37° C. for 30 minutes. After unnecessary hair follicle mesenchymal tissue such as connective tissue root sheath was removed therefrom using the tip of a syringe needle (27G), the residue was placed in the incubating space of an incubator coated with collagen and explant culture was performed in Keratinocyte-SFM medium supplemented with an antibacterial agent. After incubation for about 1 week, the medium was exchanged upon ensuring the growth of the cells. Cells grown to be subconfluent were treated with PBS(−)+0.05% trypsin at 37° C. for 3 minutes and the reaction was stopped with an equivalent amount or more of PBS(−)+0.1% trypsin inhibitor (Sigma). The cells were collected by centrifugal separation (1200 rpm×5 min) and suspended again in PBS(−). The cells were collected by centrifugal separation (1200 rpm×5 min), thereby washing the cells. Washed cells were stored while being frozen in a liquid nitrogen using Cellbanker II (DIA-IATRON: ZCB-201(100)), thereby obtaining the first stage incubated outer root sheath cells.
(2) Preparation of First Stage Incubated Dermal Papilla Cell
From a bulbus pili site obtained by excising a hair follicle isolated from a human scalp obtained by a plastic surgery, using the tip of a syringe needle (27G), a dermal papilla site was isolated under a stereoscopic microscope and placed in the incubating space of an incubator coated with collagen. Then, explant culture was performed in 10% FBS-added DMEM medium (GibcoBRL: 11965-092) supplemented with an antibacterial agent. After incubation for about 2 week, the medium was exchanged upon ensuring the growth of the cells. Cells grown to be subconfluent were treated with PBS(−)+0.05% trypsin at 37° C. for 3 minutes and the reaction was stopped with an equivalent amount or more of PBS(−)+0.1% trypsin inhibitor (Sigma). The cells were collected by centrifugal separation (1200 rpm×5 min) and suspended again in PBS(−). The cells were collected by centrifugal separation (1200 rpm×5 min), thereby washing the cells. Washed cells were stored while being frozen in a liquid nitrogen using Cellbanker II (DIA-IATRON: ZCB-201(100)), thereby obtaining the first stage incubated dermal papilla cells.
(3) Manufacture of the Artificial Bulbus Pili Site
(§1) The first stage incubated dermal papilla cell obtained above was subcultured three times (37° C., 5% CO2) in a 10% FBS-supplemented DMEM medium (GibcoBRL: 11965-092) in a 75 cm^2 incubation flask coated with Type I collagen, and then stored while being frozen in a liquid nitrogen using Cellbanker II (DIA-IATRON: ZCB-201(100)) (DPc).
as §1, with “Also, the” for “The”, “outer root sheath” for “dermal papilla”, “Keratinocyte-SFM” for “10% FBS-supplemented DMEM”, “11965-011)” for “11965-092)”, “(ORSc).” for “(DPc).”
The DPc and ORSc stored as frozen were thawed, washed with an ice-cooled Keratinocyte-SFM medium, dispersed in Keratinocyte-SFM(+) medium (which is Keratinocyte-SFM medium supplemented with 5 ng/mL epidermal growth factor and 5 μl/mL bovine pituitary glanusi extract), and subjected to an accurate cell density measurement using a hemocytometer. Then, each cell density was adjusted at 5×10^4 cells/ml, and the cell dispersions in equal volumes were combined under cooling with ice. 80 μl aliquots of the combined cell suspending Keratinocyte-SFM(+) medium were inoculated into individual wells of Sumilon celltight spheroid 96U plate (Sumitomo Bakelit co.,), and incubated for 2 days (37° C., 5% CO2). […]

[2] = tested on: immortalized human outer root sheath cell; assay: Growth-stimulative activity test on immortalized human outer root sheath cell ([3H]-thymidine uptake); type: cell-based; details: negative control (KBM+dH2O) = 100%, 2 days incubation
Procedure: Growth-Stimulative Activity Test on Immortalized Human Outer Root Sheath Cell (I) Immortalized Human Outer Root Sheath Cell Keratinocyte-SFM medium (Gibco BRL), to which a supplement attached with the medium was added, was used for culture on a dish which surface was coated with collagen. The cell was cultured until it became semiconfluent and then peeled off with 0.05% trypsin/PBS(−) and subcultured. 30-40th stage culture cells were used for study on growth. (2) Sample Preparation Each tested compound described below is dissolved with distilled water at the concentration of 10 mM and sterilized through Millipore filter. This aqueous solution was diluted with KBM at a predetermined concentration and added to the cell as a sample. The immortalized human outer root sheath cell was inoculated into a microplate (Iwaki, 24 wells) (20000 cells/well) with a growth medium KGM (Sanko Junyaku Co., Ltd., CC-3111) and incubated at 37° C. for 1 day. After each well was washed once with basal medium KBM (Sanko Junyaku Co., Ltd., CC-3101), the medium was exchanged with KBM containing each sample, and then incubated further for 2 days. [^3H]-Thymidine (Amersham Pharmacia Biotech K.K., TRK758, the final concentration: 20 μCi/ml) was added thereto and incubated at 37° C. for 3 hours. The cell was peeled off with 0.25% trypsin/PBS(−) and collected on a glass filter (Watmann, GLC). After [^3H]-thymidine that is not taken into the cell was removed by washing with distilled water, the filter was air-dried and then the radioactivity was measured by a liquid scintillation counter. […], using the uptake quantity of radioactivity in the sample-added group when that in the negative control medium (KBM+dH2O) was regarded as 100%, the immortalized human outer root sheath cell growth activity was evaluated.

COc1ccc(C(C#N)(CCCN(C)CC(C)C)C(C)C)cc1OC (stereo not drawn) [Example 8]
Judgment (cell growth-stimulative effect by relative respiration level) [1]: ++ (Strong effect is recognized (110% or more, and less than 115%))
cell growth-stimulative effect on artificial bulbus pili site, in words [1]: strong effects

CCCCCN(C)CCCC(C#N)(c1ccc(OC)c(OC)c1)C(C)C (stereo not drawn) [Example 28, 2-(3′,4′-dimethoxyphenyl)-2-isopropyl-5-[N-methyl-N-(n-pentyl)amino]pentane nitrile]
Judgment (cell growth-stimulative effect by relative respiration level) [1]: ++ (Strong effect is recognized (110% or more, and less than 115%))
cell growth-stimulative effect on artificial bulbus pili site, in words [1]: strong effects

CCCN(CCC)CCCC(C#N)(c1ccc(OC)c(OC)c1)C(C)C (stereo not drawn) [Example 12]
Judgment (cell growth-stimulative effect by relative respiration level) [1]: + (Effect is recognized (105% or more, and less then 110%))

COc1ccc(C(C#N)(CCCN(C)C(C)C)C(C)C)cc1OC (stereo not drawn) [Example 6]
Judgment (cell growth-stimulative effect by relative respiration level) [1]: + (Effect is recognized (105% or more, and less then 110%))

COc1ccc(C(C#N)(CCCn2ccnc2)C(C)C)cc1OC (stereo not drawn) [Example 26, 2-(3′,4′-dimethoxyphenyl)-5-imidazole-1″-yl-2-isopropylpentanenitrile]
Judgment (cell growth-stimulative effect by relative respiration level) [1]: + (Effect is recognized (105% or more, and less then 110%))

CCN(C)CCCC(C#N)(c1ccc(OC)c(OC)c1)C(C)C (stereo not drawn) [Example 4]
Judgment (cell growth-stimulative effect by relative respiration level) [1]: +++ (Very strong effect is recognized (115% or more))
cell growth-stimulative effect on artificial bulbus pili site, in words [1]: very strong effects

COc1ccc(C(C#N)(CCCN(CC(C)C)CC(C)C)C(C)C)cc1OC (stereo not drawn) [Example 15]
Judgment (cell growth-stimulative effect by relative respiration level) [1]: + (Effect is recognized (105% or more, and less then 110%))

COc1ccc([C@@](C#N)(CCCN(C)CCC(C)C)C(C)C)cc1OC.Cl [Example 23, (R)-2-(3′,4′-dimethoxyphenyl)-2-isopropyl-5-[N-methyl-N-(3-methylbutyl)amino]-pentanenitrile hydrochloride]
[^3H]-thymidine uptake quantity ([2]; concentration 10^−9 M): 115%
[^3H]-thymidine uptake quantity ([2]; concentration 10^−10 M): 106%
[^3H]-thymidine uptake quantity ([2]; concentration 10^−11 M): 107%
[^3H]-thymidine uptake quantity ([2]; concentration 10^−12 M): 117%
[^3H]-thymidine uptake quantity ([2]; concentration 10^−13 M): 114%
[^3H]-thymidine uptake quantity ([2]; concentration 10^−14 M): 125%

CCCCN(C)CCCC(C#N)(c1ccc(OC)c(OC)c1)C(C)C (stereo not drawn) [Example 7]
Judgment (cell growth-stimulative effect by relative respiration level) [1]: + (Effect is recognized (105% or more, and less then 110%))

COc1ccc(C(C#N)(CCCn2cccc2)C(C)C)cc1OC (stereo not drawn) [Example 25, 2-(3′,4′-dimethoxyphenyl)-2-isopropyl-5-pyrrole-1″-yl-pentanenitrile]
Judgment (cell growth-stimulative effect by relative respiration level) [1]: ++ (Strong effect is recognized (110% or more, and less than 115%))
cell growth-stimulative effect on artificial bulbus pili site, in words [1]: strong effects

COc1ccc(C(C#N)(CCCn2cccn2)C(C)C)cc1OC (stereo not drawn) [Example 27, 2-(3′,4′-dimethoxyphenyl)-2-isopropyl-5-pyrazole-1″-yl-pentanenitrile]
Judgment (cell growth-stimulative effect by relative respiration level) [1]: + (Effect is recognized (105% or more, and less then 110%))

CNCCC[C@](C#N)(c1ccc(OC)c(OC)c1)C(C)C.Cl [Example 22, (R)-2-(3′,4′-dimethoxyphenyl)-2-isopropyl-5-methylaminopentanenitrile hydrochloride]
[^3H]-thymidine uptake quantity ([2]; concentration 10^−9 M): 105%
[^3H]-thymidine uptake quantity ([2]; concentration 10^−10 M): 98%
[^3H]-thymidine uptake quantity ([2]; concentration 10^−11 M): 111%
[^3H]-thymidine uptake quantity ([2]; concentration 10^−12 M): 135%
[^3H]-thymidine uptake quantity ([2]; concentration 10^−13 M): 153%
[^3H]-thymidine uptake quantity ([2]; concentration 10^−14 M): 160%

COc1ccc(C(C#N)(CCCN2CCOCC2)C(C)C)cc1OC (stereo not drawn) [Example 24, 2-(3′,4′-dimethoxyphenyl)-2-isopropyl-5-morpholine-4″-yl-pentanenitrile]
Judgment (cell growth-stimulative effect by relative respiration level) [1]: ± (Weak effect is recognized (102% or more, and less then 105%))

CCCN(C)CCCC(C#N)(c1ccc(OC)c(OC)c1)C(C)C (stereo not drawn) [Example 5]
Judgment (cell growth-stimulative effect by relative respiration level) [1]: + (Effect is recognized (105% or more, and less then 110%))

COc1ccc(C(C#N)(CCCN(C)CCC(C)C)C(C)C)cc1OC.Cl (stereo not drawn) [Example 21, 2-(3′,4′-dimethoxyphenyl)-2-isopropyl-5-[N-methyl-N-(3-methylbutyl)amino]-pentanenitrile hydrochloride]
[^3H]-thymidine uptake quantity ([2]; concentration 10^−9 M): 151%
[^3H]-thymidine uptake quantity ([2]; concentration 10^−10 M): 143%
[^3H]-thymidine uptake quantity ([2]; concentration 10^−11 M): 160%
[^3H]-thymidine uptake quantity ([2]; concentration 10^−12 M): 114%
[^3H]-thymidine uptake quantity ([2]; concentration 10^−13 M): 118%
